# Measurements: patent US8877741B2, “Pyrrolidine derivatives, pharmaceutical compositions and uses thereof” (Boehringer Ingelheim International GmbH, priority 2013, dated 2014)
# Target: human ACC2 (Homo sapiens (Human), UniProt O00763)
# Test: ACC2 assay, spectrophotometric 384 well assay (NADH-linked kinetic method)
# Assay type: biochemical
# Details: human ACC2 construct lacking the 128 N-terminal amino acids; coupled lactate dehydrogenase/pyruvate kinase reaction, 340 nm, 25° C.
# Method in brief: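 N-terminally truncated human ACC2 (lacking 128 residues), expressed in insect cells, was coupled to pyruvate kinase/lactate dehydrogenase, with NADH and acetyl-CoA at 2000 μM and ATP at 500 μM final. The OD340 decrease was followed over 15 min at 25 °C. Slopes were normalised to vehicle and no-acetyl-CoA controls, and IC50 came from four-parameter regression.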
# human ACC2, sequence (O00763 129-2458): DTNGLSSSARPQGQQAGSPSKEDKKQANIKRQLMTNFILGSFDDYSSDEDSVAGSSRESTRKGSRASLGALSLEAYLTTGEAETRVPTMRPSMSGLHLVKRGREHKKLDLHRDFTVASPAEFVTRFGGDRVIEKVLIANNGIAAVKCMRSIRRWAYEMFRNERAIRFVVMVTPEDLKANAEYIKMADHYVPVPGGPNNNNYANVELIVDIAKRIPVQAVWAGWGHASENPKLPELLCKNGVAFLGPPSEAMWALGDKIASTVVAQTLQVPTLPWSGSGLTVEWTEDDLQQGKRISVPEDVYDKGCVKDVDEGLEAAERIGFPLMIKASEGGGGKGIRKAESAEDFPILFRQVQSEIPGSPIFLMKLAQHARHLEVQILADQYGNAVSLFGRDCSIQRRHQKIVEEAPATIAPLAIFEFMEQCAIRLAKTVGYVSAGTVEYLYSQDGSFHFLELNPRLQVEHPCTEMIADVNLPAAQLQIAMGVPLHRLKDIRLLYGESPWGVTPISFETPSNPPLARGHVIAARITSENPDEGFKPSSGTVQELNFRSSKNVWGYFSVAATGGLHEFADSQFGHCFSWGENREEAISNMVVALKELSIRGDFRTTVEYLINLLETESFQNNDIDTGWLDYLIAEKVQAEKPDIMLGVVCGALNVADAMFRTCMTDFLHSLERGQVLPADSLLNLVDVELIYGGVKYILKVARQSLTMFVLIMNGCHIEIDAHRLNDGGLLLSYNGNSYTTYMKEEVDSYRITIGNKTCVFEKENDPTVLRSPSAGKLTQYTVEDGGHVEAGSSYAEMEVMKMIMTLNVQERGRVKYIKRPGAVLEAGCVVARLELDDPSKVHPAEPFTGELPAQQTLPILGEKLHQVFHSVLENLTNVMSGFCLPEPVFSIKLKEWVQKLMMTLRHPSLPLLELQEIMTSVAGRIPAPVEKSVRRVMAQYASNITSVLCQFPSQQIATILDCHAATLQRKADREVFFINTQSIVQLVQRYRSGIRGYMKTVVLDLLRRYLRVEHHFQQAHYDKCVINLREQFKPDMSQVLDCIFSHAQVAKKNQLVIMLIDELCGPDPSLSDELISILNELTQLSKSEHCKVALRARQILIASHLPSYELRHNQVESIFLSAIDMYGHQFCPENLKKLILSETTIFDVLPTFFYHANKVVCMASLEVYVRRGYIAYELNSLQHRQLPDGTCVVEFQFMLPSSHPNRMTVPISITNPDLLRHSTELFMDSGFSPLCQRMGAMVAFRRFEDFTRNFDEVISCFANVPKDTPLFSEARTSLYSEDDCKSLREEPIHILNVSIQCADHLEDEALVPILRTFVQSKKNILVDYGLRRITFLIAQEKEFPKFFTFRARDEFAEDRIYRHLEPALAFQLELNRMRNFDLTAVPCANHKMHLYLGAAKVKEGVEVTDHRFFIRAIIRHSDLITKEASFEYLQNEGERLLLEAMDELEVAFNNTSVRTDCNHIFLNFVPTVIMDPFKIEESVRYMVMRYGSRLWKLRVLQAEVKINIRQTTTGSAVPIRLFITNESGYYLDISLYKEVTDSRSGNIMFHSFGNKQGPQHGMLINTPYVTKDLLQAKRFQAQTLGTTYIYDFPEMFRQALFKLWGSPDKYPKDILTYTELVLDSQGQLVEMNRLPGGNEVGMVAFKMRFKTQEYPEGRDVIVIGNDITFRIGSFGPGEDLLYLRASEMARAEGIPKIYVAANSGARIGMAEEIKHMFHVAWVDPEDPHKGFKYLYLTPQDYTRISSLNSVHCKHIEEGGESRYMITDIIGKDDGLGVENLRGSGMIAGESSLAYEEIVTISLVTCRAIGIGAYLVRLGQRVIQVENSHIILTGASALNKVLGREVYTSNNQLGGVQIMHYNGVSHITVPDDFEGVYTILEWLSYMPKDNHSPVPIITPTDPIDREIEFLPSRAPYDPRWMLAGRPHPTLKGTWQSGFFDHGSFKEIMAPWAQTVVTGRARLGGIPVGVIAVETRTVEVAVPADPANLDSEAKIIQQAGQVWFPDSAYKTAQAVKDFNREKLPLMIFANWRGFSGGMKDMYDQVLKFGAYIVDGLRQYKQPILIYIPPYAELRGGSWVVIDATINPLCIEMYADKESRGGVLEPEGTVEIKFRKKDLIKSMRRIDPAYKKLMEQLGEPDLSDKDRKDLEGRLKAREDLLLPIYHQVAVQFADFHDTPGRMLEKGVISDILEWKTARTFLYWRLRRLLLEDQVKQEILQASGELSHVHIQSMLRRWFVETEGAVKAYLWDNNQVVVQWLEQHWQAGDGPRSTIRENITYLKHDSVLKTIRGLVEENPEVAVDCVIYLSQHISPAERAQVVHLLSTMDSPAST
row,IC50 [µM],SMILES
1,0.059,CCCOc1nccc(N2CC[C@@H](Oc3ccc([C@H](C)NC(C)=O)cc3)C2)c1C [Example 9.55]
2,0.9,CC(=O)N[C@@H](C)c1ccc(O[C@@H]2CCN(c3cc(OCC(C)C)ncc3C#N)C2)cc1 [Example 9.56]
3,0.055,CC(=O)N[C@@H](C)c1ccc(O[C@@H]2CCN(c3ccnc(OCC4CC4)c3C)C2)cc1 [Example 9.57]
4,0.055,CC(=O)N[C@@H](C)c1ccc(O[C@@H]2CCN(c3ccnc(OCC(C)C)c3C)C2)cc1 [Example 9.58]
5,0.235,Cc1c(N2CC[C@@H](Oc3ccc([C@H](C)NC(=O)/C=C/C4CC4)cc3)C2)ccnc1OCC1CC1 [Example 9.59]
6,0.04,CC(=O)N[C@@H](C)c1ccc(O[C@@H]2CCN(c3ccnc(OCC4CC4(F)F)c3C)C2)cc1 (some centres unmarked) [Example 9.60]
7,0.065,CC(=O)N[C@@H](C)c1ccc(O[C@@H]2CCN(c3ccnc(OCC4CC(F)(F)C4)c3)C2)cc1 [Example 9.61]
8,0.044,CC(=O)N[C@@H](C)c1ccc(O[C@@H]2CCN(c3ccnc(OCC4CC4(F)F)c3F)C2)cc1 (some centres unmarked) [Example 9.62]
9,0.055,C[C@H](NC(=O)c1cncs1)c1ccc(O[C@@H]2CCN(c3ccnc(OCC4CC4)c3)C2)cc1 [Example 9.63]
10,0.035,CCCOc1cc(N2CC[C@@H](Oc3ccc([C@H](C)NC(=O)c4cncs4)cc3)C2)ccn1 [Example 9.64]
11,0.085,C[C@H](NC(=O)c1cncs1)c1ccc(O[C@@H]2CCN(c3ccnc(OC4CCOC4)c3)C2)cc1 (some centres unmarked) [Example 9.65]
12,0.615,CC(=O)N[C@@H](C)c1ccc(O[C@@H]2CCN(c3ccnc(OCC(F)F)c3OCC(F)F)C2)cc1 [Example 9.66]
13,0.146,CC(=O)N[C@@H](C)c1ccc(O[C@@H]2CCN(c3nccc(OCC4CC4)c3F)C2)cc1 [Example 9.67]
14,0.251,CCCOc1ccnc(N2CC[C@@H](Oc3ccc([C@H](C)NC(C)=O)cc3)C2)c1F [Example 9.68]
15,0.603,CCOc1ccnc(N2CC[C@@H](Oc3ccc([C@H](C)NC(C)=O)cc3)C2)c1F [Example 9.69]
16,0.124,CC(=O)N[C@@H](C)c1ccc(O[C@@H]2CCN(c3cc(OCC(F)F)ncc3F)C2)cc1 [Example 9.70]
17,0.045,CC(=O)N[C@@H](C)c1ccc(O[C@@H]2CCN(c3ccnc(OCC4CC4(F)F)c3Cl)C2)cc1 (some centres unmarked) [Example 9.71]
18,0.079,CC(=O)N[C@@H](C)c1ccc(O[C@@H]2CCN(c3ccnc(OCC(F)F)c3Cl)C2)cc1 [Example 9.72]

row,IC50 [µM],SMILES
1,0.045,CCC(=O)Nc1nc(C)c(C(=O)N[C@@H](C)c2ccc(O[C@@H]3CCN(c4ccnc(OCC5CC5)c4Cl)C3)cc2)s1 [Example 9.73]
2,0.22,CC(=O)N[C@@H](C)c1ccc(O[C@@H]2CCN(c3ccnc(OCC(C)O)c3F)C2)cc1 (some centres unmarked) [Example 9.74]
3,0.881,CC(=O)N[C@@H](C)c1ccc(O[C@@H]2CCN(c3ccnc(OCCO)c3F)C2)cc1 [Example 9.75]
4,0.114,CCOc1nccc(N2CC[C@@H](Oc3ccc([C@H](C)NC(C)=O)cc3)C2)c1Cl [Example 9.76]
5,0.059,CC(=O)N[C@@H](C)c1ccc(O[C@@H]2CCN(c3ccnc(OCC(C)(F)F)c3Cl)C2)cc1 [Example 9.77]
6,0.057,CCCOc1nccc(N2CC[C@@H](Oc3ccc([C@H](C)NC(C)=O)cc3)C2)c1Cl [Example 9.78]
7,0.132,COC(C)(C)COc1nccc(N2CC[C@@H](Oc3ccc([C@H](C)NC(C)=O)cc3)C2)c1Cl [Example 9.79]
8,0.138,CC(=O)N[C@@H](C)c1ccc(O[C@@H]2CCN(c3ccnc(OC(C)C)c3Cl)C2)cc1 [Example 9.80]
9,0.053,CC(=O)N[C@@H](C)c1ccc(O[C@@H]2CCN(c3ccnc(OC4CCCC4)c3Cl)C2)cc1 [Example 9.81]
10,0.035,CC(=O)N[C@@H](C)c1ccc(O[C@@H]2CCN(c3ccnc(OCC4CC4)c3Cl)C2)cc1 [Example 9.82]
11,0.08,CC(=O)N[C@@H](C)c1ccc(O[C@@H]2CCN(c3ccnc(OC(C)C)c3F)C2)cc1 [Example 9.83]
12,0.045,CC(=O)N[C@@H](C)c1ccc(O[C@@H]2CCN(c3ccnc(OC4CCCC4)c3F)C2)cc1 [Example 9.84]
13,0.058,CC(=O)N[C@@H](C)c1ccc(O[C@@H]2CCN(c3ccnc(OCC(C)(F)F)c3F)C2)cc1 [Example 9.85]
14,0.187,CCOc1nccc(N2CC[C@@H](Oc3ccc([C@H](C)NC(C)=O)cc3)C2)c1F [Example 9.86]
15,0.28,COC(C)(C)COc1nccc(N2CC[C@@H](Oc3ccc([C@H](C)NC(C)=O)cc3)C2)c1F [Example 9.87]
16,0.177,CC(=O)N[C@@H](C)c1ccc(O[C@@H]2CCN(c3ccnc(OCC(C)(C)O)c3Cl)C2)cc1 [Example 9.88]
17,0.145,"CC(=O)N[C@@H](C)c1ccc(O[C@@H]2CCN(c3cccc(N(C)C)n3)C2)cc1 [Example 10.1, N—((S)-1-(4-((R)-1-(6-(Dimethylamino)pyridin-2-yl)pyrrolidin-3-yloxy)phenyl)ethyl)acetamide]"

# Continued, molecule first:
row,SMILES,IC50 [µM]
1,CC(=O)N[C@@H](C)c1ccc(O[C@@H]2CCN(c3ccnc(OC(C)c4ccccc4)c3)C2)cc1 (some centres unmarked) [Example 9.19],0.33
2,CCC(CC)Oc1cc(N2CC[C@@H](Oc3ccc([C@H](C)NC(C)=O)cc3)C2)ccn1 [Example 9.20],0.07
3,CC(=O)N[C@@H](C)c1ccc(O[C@@H]2CCN(c3ccnc(OCc4cccc(F)c4)c3)C2)cc1 [Example 9.21],0.477
4,CC(=O)N[C@@H](C)c1ccc(O[C@@H]2CCN(c3ccnc(OC4CCOCC4)c3)C2)cc1 [Example 9.22],0.14
5,CC(=O)N[C@@H](C)c1ccc(O[C@@H]2CCN(c3ccnc(OCC4CC4C)c3)C2)cc1 (some centres unmarked) [Example 9.23],0.045
6,CC(=O)N[C@@H](C)c1ccc(O[C@@H]2CCN(c3ccnc(OCC4CC4C#N)c3)C2)cc1 (some centres unmarked) [Example 9.24],0.055
7,CC(=O)N[C@@H](C)c1ccc(O[C@@H]2CCN(c3ccnc(O[C@H]4CCOC4)c3)C2)cc1 [Example 9.25],0.572
8,CC(=O)N[C@@H](C)c1ccc(O[C@@H]2CCN(c3ccnc(OCC4CCOC4)c3)C2)cc1 (some centres unmarked) [Example 9.26],0.125
9,CC[C@H](C)Oc1cc(N2CC[C@@H](Oc3ccc([C@H](C)NC(C)=O)cc3)C2)ccn1 [Example 9.27],0.055
10,CC(=O)N[C@@H](C)c1ccc(O[C@@H]2CCN(c3ccnc(OC4CCCC4)c3)C2)cc1 [Example 9.28],0.04
11,CC(=O)N[C@@H](C)c1ccc(O[C@@H]2CCN(c3ccnc(OCC(C)(C)C)c3)C2)cc1 [Example 9.29],0.03
12,CC(=O)N[C@@H](C)c1ccc(O[C@@H]2CCN(c3ccnc(OCc4cccnc4)c3)C2)cc1 [Example 9.30],0.402
13,CC(=O)N[C@@H](C)c1ccc(O[C@@H]2CCN(c3ccnc(OCC(F)F)c3)C2)cc1 [Example 9.31],0.09
14,CC(=O)N[C@@H](C)c1ccc(O[C@@H]2CCN(c3ccnc(OCC(C)(C)O)c3)C2)cc1 [Example 9.32],0.305
15,CC(=O)N[C@@H](C)c1ccc(O[C@@H]2CCN(c3ccnc(OCc4ccccn4)c3)C2)cc1 [Example 9.33],0.535
16,CC(=O)N[C@@H](C)c1ccc(O[C@@H]2CCN(c3ccnc(OCCC(C)C)c3)C2)cc1 [Example 9.34],0.095
17,CC(=O)N[C@@H](C)c1ccc(O[C@@H]2CCN(c3ccnc(OCc4ccncc4)c3)C2)cc1 [Example 9.35],0.584
18,CC(C)COc1cc(N2CC[C@@H](Oc3ccc([C@H](C)NC(=O)C4CC4)cc3)C2)ccn1 [Example 9.36],0.209

row,SMILES,IC50 [µM]
1,CCCOc1cc(N2CC[C@@H](Oc3ccc([C@H](C)NC(=O)C4CC4)cc3)C2)ccn1 [Example 9.37],0.385
2,CCOc1cc(N2CC[C@@H](Oc3ccc([C@H](C)NC(=O)C4CC4)cc3)C2)ccn1 [Example 9.38],0.51
3,C[C@H](NC(=O)C1CC1)c1ccc(O[C@@H]2CCN(c3ccnc(OCC4CC4)c3)C2)cc1 [Example 9.39],0.149
4,C[C@H](NC(=O)C1CC1)c1ccc(O[C@@H]2CCN(c3ccnc(OCC4CC4(F)F)c3)C2)cc1 (some centres unmarked) [Example 9.40],0.326
5,C[C@H](NC(=O)C1CC1)c1ccc(O[C@@H]2CCN(c3ccnc(OC4CCC4)c3)C2)cc1 [Example 9.41],0.095
6,C[C@H](NC(=O)C1CC1)c1ccc(O[C@@H]2CCN(c3ccnc(OCC(F)F)c3)C2)cc1 [Example 9.42],0.402
7,C[C@H](NC(=O)C1CC1)c1ccc(O[C@@H]2CCN(c3ccnc(O[C@@H]4CCOC4)c3)C2)cc1 [Example 9.43],0.184
8,CO[C@@H](C)COc1cc(N2CC[C@@H](Oc3ccc([C@H](C)NC(C)=O)cc3)C2)ccn1 [Example 9.44],0.639
9,CC(=O)N[C@@H](C)c1ccc(O[C@@H]2CCN(c3ccnc(O[C@@H]4CCC[C@@H]4O)c3)C2)cc1 [Example 9.45],0.5
10,CCC(COC)Oc1cc(N2CC[C@@H](Oc3ccc([C@H](C)NC(C)=O)cc3)C2)ccn1 (some centres unmarked) [Example 9.46],0.544
11,CC(=O)N[C@@H](C)c1ccc(O[C@@H]2CCN(c3ccnc(O[C@@H]4CCC[C@H]4O)c3)C2)cc1 [Example 9.47],0.745
12,CC(=O)N[C@@H](C)c1ccc(O[C@@H]2CCN(c3ccnc(OCC4CCCO4)c3)C2)cc1 (some centres unmarked) [Example 9.48],0.495
13,CC(=O)N[C@@H](C)c1ccc(O[C@@H]2CCN(c3ccnc(OCC4CCCO4)c3)C2)cc1 (some centres unmarked) [Example 9.49],0.668
14,CC(=O)N[C@@H](C)c1ccc(O[C@@H]2CCN(c3ccnc(OCC(C)C)c3F)C2)cc1 [Example 9.50],0.11
15,CC(=O)N[C@@H](C)c1ccc(O[C@@H]2CCN(c3ccnc(OCC4CC4)c3F)C2)cc1 [Example 9.51],0.042
16,CC(=O)N[C@@H](C)c1ccc(O[C@@H]2CCN(c3ccnc(OCC(F)F)c3F)C2)cc1 [Example 9.52],0.061
17,CCCOc1nccc(N2CC[C@@H](Oc3ccc([C@H](C)NC(C)=O)cc3)C2)c1F [Example 9.53],0.04
18,CC(=O)N[C@@H](C)c1ccc(O[C@@H]2CCN(c3ccnc(OCC(F)F)c3C)C2)cc1 [Example 9.54],0.115
